Reference: patent US20250277030A1, “ANTI-NAPI2B ANTIBODIES AND METHODS OF USE” (Zymeworks BC Inc., priority 2022, published 2025)

Tests used:
[1] = tested on: cynomolgus NaPi2b; experiment: Flow cytometry binding to HEK293-6e cells transfected with cynomolgus NaPi2b (Example 5); conditions: transfected HEK293-6e cells
Protocol: (§1) The binding cross-reactivity of humanized antibody variant v29456 to human, cynomolgus and mouse NaPi2b was assessed by flow cytometry using HEK293-6e transfected cells.
(§2) Briefly, HEK293-6e cells were transfected for ˜24 hours to transiently express human NaPi2b, cynomolgus or mouse NaPi2b, at 1 μg of DNA per 1 million cells. Following transfection, 50,000 cells per well were seeded in V-bottom 96-well plates and incubated with 200 nM of primary antibody for 18-24 hours at 4° C. to prevent internalization. Post-incubation, cells were washed and stained with anti-Human IgG Fc AF647 conjugate (Jackson Immuno Research Labs, West Grove, PA, Cat. No. 109-605-098, Lot. No. 124868) at 4° C. for 1 hour. Following staining and washing, fluorescence was detected by flow cytometry on BD LSRFortessa™ Cell Analyzer (BD Biosciences, Franklin Lake, NJ) with 10,000 minimum events collected per well. The AF647/APC-A GeoMean (fluorescence signal geometric mean, proportional to anti-Human AF647 binding) was calculated for the live singlet cell population for each primary antibody using FlowJo™ v8 software (BD Biosciences, Franklin Lake, NJ). The Bmax and Kd of each primary antibody were calculated using GraphPad Prism Version 9 (GraphPad Software, San Diego, CA)

[2] = target: T1, mouse NaPi2b (Mus musculus, UniProt Q9DBP0); experiment: Flow cytometry binding to HEK293-6e cells transfected with mouse NaPi2b (Example 5); conditions: transfected HEK293-6e cells
T1 construct: expressed in transfected cells; host or cells: HEK293-6e
T1 sequence (Q9DBP0 1-697): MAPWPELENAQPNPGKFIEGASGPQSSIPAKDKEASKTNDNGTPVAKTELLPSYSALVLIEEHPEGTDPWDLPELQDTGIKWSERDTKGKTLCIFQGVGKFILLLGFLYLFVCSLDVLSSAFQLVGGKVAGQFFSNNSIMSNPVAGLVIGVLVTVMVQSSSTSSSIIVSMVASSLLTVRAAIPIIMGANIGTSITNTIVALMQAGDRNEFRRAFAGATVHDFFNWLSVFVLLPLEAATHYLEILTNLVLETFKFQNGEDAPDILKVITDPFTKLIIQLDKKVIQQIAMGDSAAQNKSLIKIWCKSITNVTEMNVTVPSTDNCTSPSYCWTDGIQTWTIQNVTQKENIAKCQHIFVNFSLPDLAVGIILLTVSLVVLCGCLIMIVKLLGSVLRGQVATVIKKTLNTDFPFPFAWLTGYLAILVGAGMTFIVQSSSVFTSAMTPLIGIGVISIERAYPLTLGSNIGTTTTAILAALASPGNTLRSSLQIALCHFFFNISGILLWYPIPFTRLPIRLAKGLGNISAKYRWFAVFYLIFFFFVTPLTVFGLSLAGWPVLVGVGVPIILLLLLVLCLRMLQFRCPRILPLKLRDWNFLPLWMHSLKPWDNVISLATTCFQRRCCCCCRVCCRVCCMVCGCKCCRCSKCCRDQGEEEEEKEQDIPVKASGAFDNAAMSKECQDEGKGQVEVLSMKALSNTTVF
Protocol: as §1, §2

[3] = tested on: NCI-H441 cells; experiment: Internalization by flow cytometry in NCI-H441 cells; format: cell-based, human; conditions: antibody 10 nM
Protocol: Briefly, antibodies were fluorescently labeled by coupling to a Fab fragment AF488 conjugate targeting anti-Human IgG Fe (Jackson Immuno Research Labs, West Grove, PA; Cat. No. 109-547-008) at a 1:1 molar ratio in PBS pH 7.4 (Thermo Fisher Scientific, Waltham, MA; Cat. No. 10010-023), for 24 hours at 4° C. Cells were seeded at 50,000 cells/well in RPMI 1640, ATCC modification (Thermo Fisher Scientific, Waltham, MA) supplemented with 10% fetal bovine serum (Thermo Fisher Scientific, Waltham, MA) in 48-well plates and incubated overnight under standard culturing conditions (37° C./5% CO2) to allow attachment. […] Following incubation, cells were dissociated, washed, and surface AF488 fluorescence was quenched using an anti-AF488 antibody (Life Technologies, Carlsbad, CA; Cat. No. A-11094) at 100 nM for 30 minutes at 4° C. […] (internalized fluorescence) was detected by flow cytometry on a BD LSRFortessa™ Cell Analyzer (BD Biosciences, Franklin Lake, NJ) with 1,000 minimum events collected per well. The AF488/FITC-A GeoMean (fluorescence signal geometric mean, proportional to anti-Human Fab AF488 labelling) was calculated for the live single cell population using FlowJo™ Version 10.8.1 (BD Biosciences, Franklin Lake, NJ) and plotted using GraphPad Prism Version 9 (GraphPad Software, San Diego, CA).

[4] = target: T2, NaPi2b expressed on HCC-78 cells (Homo sapiens, UniProt O95436); experiment: Cellular binding of antibody and ADCs to HCC-78 cells by flow cytometry (Example 14)
T2 construct: endogenous in cells; host or cells: HCC-78
T2 sequence (O95436 1-690): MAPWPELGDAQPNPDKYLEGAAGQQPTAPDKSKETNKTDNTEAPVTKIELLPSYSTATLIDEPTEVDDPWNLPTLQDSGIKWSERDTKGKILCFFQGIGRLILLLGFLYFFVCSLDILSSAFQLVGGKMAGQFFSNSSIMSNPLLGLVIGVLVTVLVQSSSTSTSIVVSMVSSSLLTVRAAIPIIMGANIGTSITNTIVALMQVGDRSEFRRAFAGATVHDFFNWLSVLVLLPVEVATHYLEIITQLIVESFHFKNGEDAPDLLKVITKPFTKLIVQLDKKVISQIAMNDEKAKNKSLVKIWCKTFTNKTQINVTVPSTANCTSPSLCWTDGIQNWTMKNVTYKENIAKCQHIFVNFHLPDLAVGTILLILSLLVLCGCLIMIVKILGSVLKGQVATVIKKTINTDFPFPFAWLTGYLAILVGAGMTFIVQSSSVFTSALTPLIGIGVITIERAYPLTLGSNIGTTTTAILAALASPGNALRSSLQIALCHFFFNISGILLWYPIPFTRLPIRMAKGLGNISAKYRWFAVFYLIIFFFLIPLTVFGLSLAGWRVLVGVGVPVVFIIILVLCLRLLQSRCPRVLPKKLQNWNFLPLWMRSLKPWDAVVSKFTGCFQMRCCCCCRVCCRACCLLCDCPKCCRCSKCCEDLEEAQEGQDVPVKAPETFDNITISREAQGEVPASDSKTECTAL
Protocol: as §2
The ability of ADCs to bind to cells expressing NaPi2b was assessed. […] Binding to endogenous high NaPi2b-expressing cell lines IGROV-1 and HCC-78 was assessed by flow cytometry according to methods described in Example 5.

Sequence of cynomolgus NaPi2b (as listed by the source): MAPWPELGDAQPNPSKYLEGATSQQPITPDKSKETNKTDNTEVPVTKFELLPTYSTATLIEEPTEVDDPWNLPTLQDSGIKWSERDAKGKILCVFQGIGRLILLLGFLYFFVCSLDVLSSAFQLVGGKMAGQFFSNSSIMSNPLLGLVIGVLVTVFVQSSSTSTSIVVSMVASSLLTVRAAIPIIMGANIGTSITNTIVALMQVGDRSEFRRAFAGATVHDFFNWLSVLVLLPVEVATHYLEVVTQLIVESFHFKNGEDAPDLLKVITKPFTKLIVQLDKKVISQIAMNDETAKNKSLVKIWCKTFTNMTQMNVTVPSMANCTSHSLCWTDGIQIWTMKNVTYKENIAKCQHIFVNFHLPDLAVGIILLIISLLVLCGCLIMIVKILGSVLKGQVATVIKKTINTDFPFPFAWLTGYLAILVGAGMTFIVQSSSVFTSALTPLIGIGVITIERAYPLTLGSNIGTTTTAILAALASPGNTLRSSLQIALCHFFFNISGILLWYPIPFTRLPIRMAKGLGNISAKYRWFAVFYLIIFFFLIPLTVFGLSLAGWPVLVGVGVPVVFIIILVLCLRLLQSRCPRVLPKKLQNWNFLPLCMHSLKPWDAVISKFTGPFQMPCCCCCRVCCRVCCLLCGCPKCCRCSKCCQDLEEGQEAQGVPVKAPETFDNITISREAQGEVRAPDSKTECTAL

## v22277: anti-RSV antibody palivizumab, negative control; has a heterodimeric Fc [reference compound]
[1]
  Binding to cynomolgus NaPi2b, in words: did not bind
[2]
  Binding to mouse NaPi2b, in words: did not bind
[3]; NCI-H441, 5 hrs
  Internalized Fluorescence Fold-Over Palivizumab: 1.0 fold
[3]; NCI-H441, 24 hrs
  Internalized Fluorescence Fold-Over Palivizumab: 1.0 fold
[4]
  Binding to HCC-78 cells, in words: did not bind
